Laboratory results from US20200188511A1, “METHODS OF IMPROVING EFFICACY OF ALLERGY VACCINES” (ANERGIS S.A., priority 2018, published 2020).

tested on: Bet v 1-specific IgE; assay: In vitro IgE binding (IgE ELISA competition and basophil degranulation assays); set-up: species or system human
Description: These experiments are necessary to ensure that the presentation of the peptides in the Bet v1 COP-Virosomes is not associated with the appearance of unexpected binding to pre-existing Bet v 1-specific IgE.
Bet v 1 at 2 μg/ml was coated overnight on 96-well Nunc Maxisorp® immunoplates (Thermo Fisher Scientific Inc., Wohlen, Switzerland). Sera from birch allergic persons were diluted either ten-fold or twenty-fold (depending on Bet v 1 specific IgE content) and added to serial dilutions of either Bet v 1 or COPs virosomes and incubated for 15 minutes on ice. Serial dilutions of Bet v 1 and COPs virosomes ranged from 10^−6 M to 10^−12 M, final concentration. Serum antigen mixtures were then added to the ELISA plates.

IgE binding	Molecule
absence of detectable IgE binding	Aller T1: COP peptide of 49 amino acids, aa 2-50 of Bet v 1 (SEQ ID 4) (GVFNYETETTSVIPAARLFKAFILDGDNLFPKVAPQAISSVENIEGNGG)
absence of detectable IgE binding	Aller T3: COP peptide of 55 amino acids, aa 106-160 of Bet v 1 (SEQ ID 4) (VATPDGGSILKISNKYHTKGDHEVKAEQVKASKEMGETLLRAVESYLLAHSDAYN)
absence of detectable IgE binding	Aller T2: COP peptide of 71 amino acids, aa 48-118 of Bet v 1 (SEQ ID 4) (peptide) NGGPGTIKKISFPEGFPFKYVKDRVDEVDHTNFKYNYSVIEGGPIGDTLEKISNEIKIVATPDGGSILKIS
